Some results are limits rather than exact numbers.

T1 sequence (P04629 443-796): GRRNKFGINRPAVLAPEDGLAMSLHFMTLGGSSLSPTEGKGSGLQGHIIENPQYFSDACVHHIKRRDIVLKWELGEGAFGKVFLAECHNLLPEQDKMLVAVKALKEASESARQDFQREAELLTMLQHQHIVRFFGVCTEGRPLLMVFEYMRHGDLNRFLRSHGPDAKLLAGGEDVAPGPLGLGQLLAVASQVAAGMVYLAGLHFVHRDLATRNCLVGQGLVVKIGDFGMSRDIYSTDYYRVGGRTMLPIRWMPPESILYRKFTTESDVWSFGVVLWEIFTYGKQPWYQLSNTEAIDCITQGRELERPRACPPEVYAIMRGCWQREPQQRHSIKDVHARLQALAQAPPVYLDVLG

This experiment concerns the target T1, human Trk-A (Homo sapiens, UniProt P04629).
T1 construct: C-terminal fragment of human Trk-A (amino acids G443-G796); GST; His; purchased Proqinase [Freiburg i.Brsg., Germany]; host or cells: insect cells [SF9]
Put plainly: TrkA HTRF Assay (assay 7). The format is biochemical. The conditions noted are these: pIC50 class; 10 μM ATP; read-out: Enzymatic TrkA activity (assay 7). An excerpt:
Trk-A inhibitory activity of compounds of the present invention was quantified employing the Trk-A HTRF assay as described in the following paragraphs.
As kinase, a GST-His fusion protein containing a C-terminal fragment of human Trk-A (amino acids G443-G796, expressed in insect cells [SF9] and purified by affinity chromatography, purchased from Proqinase [Freiburg i.Brsg., Germany] was used. As substrate for the kinase reaction the biotinylated poly-Glu, Tyr (4:1) copolymer (#61GT0BLA) from Cis Biointernational (Marcoule, France) was used. For the assay 50 nl of a 100 fold concentrated solution of the test compound in DMSO was pipetted into a black low volume 384 well microtiter plate (Greiner Bio-One, Frickenhausen, Germany), 2 μl of a solution of TrkA in aqueous assay buffer [8 mM MOPS/NaOH pH 7.0, 10 mM Mg(OAc)2, 1 mM dithiothreitol, 0.01% (v/v) NP-40 (Fluka), 0.2 mM EDTA] were added and the mixture was incubated for 15 min at 22° C. to allow pre-binding of the test compounds to the enzyme before the start of the kinase reaction. Then the kinase reaction was started by the addition of 3 μl of a solution of adenosine-tri-phosphate (ATP, 16.7 μM=>final conc. in the 5 μl assay volume is 10 μM) and substrate (2.27 μg/ml=>final conc. in the 5 μl assay volume is 1.36 μg/ml [˜30 nM]) in assay buffer and the resulting mixture was incubated for a reaction time of 60 min at 22° C. The concentration of Trk-A in the assay was adjusted depending of the activity of the enzyme lot and was chosen appropriate to have the assay in the linear range, typical enzyme concentrations were in the range of about 60 pg/μl (final conc. in the 5 μl assay volume). The reaction was stopped by the addition of 5 μl of a solution of HTRF detection reagents (200 nM streptavidine-XLent [Cis Biointernational] and 1.4 nM PT66-Eu-Chelate, an europium-chelate labelled anti-phospho-tyrosine antibody from Perkin Elmer) in an aqueous EDTA-solution (100 mM EDTA, 0.2% (w/v) bovine serum albumin in 50 mM HEPES/NaOH pH 7.5).
The resulting mixture was incubated 1 h at 22° C. to allow the binding of the biotinylated phosphorylated peptide to the streptavidine-XLent and the PT66-Eu-Chelate. Subsequently the amount of phosphorylated substrate was evaluated by measurement of the resonance energy transfer from the PT66-Eu-Chelate to the streptavidine-XLent. Therefore, the fluorescence emissions at 620 nm and 665 nm after excitation at 350 nm was measured in a HTRF reader, e.g. a Rubystar (BMG Labtechnologies, Offenburg, Germany) or a Viewlux (Perkin-Elmer). The ratio of the emissions at 665 nm and at […] was taken as the measure for the amount of phosphorylated substrate. The data were normalised (enzyme reaction without inhibitor=0% inhibition, all other assay components but no enzyme=100% inhibition).
As for `Cn1ncc2c(C#Cc3cc(NC(=O)c4cccc(C(F)(F)F)c4)ccc3F)cncc21` [Example 1.9, N-[4-Fluoro-3-(1-methyl-1H-pyrazolo[3,4-c]pyridin-4-ylethynyl)-phenyl]-3-trifluoromethyl-benzamide], the IC50 was at least 10 µM.
For `Cc1ccc(NC(=O)c2cccc(C(F)(F)F)c2)cc1C#Cc1cncc2c1cnn2C` [Example 1.6, N-[4-Methyl-3-(1-methyl-1H-pyrazolo[3,4-c]pyridin-4-ylethynyl)-phenyl]-3-trifluoromethyl-benzamide] the value was at least 10 µM; for `Cc1ccc(NC(=O)Nc2cccc(C(F)(F)F)c2)cc1C#Cc1cncc2c1cnn2C` [Example 2.4, 1-[4-Methyl-3-(1-methyl-1H-pyrazolo[3,4-c]pyridin-4-ylethynyl)-phenyl]-3-(3-trifluoromethyl-phenyl)-urea], at least 10 µM.
For `Cn1ncc2c(C#Cc3cccc(NC(=O)c4cccc(C(F)(F)F)c4)c3)cncc21` [Example 1.5, N-[3-(1-Methyl-1H-pyrazolo[3,4-c]pyridin-4-ylethynyl)-phenyl]-3-trifluoromethyl-benzamide] the value was at least 10 µM; for `Cn1ncc2c(C#Cc3cccc(NC(=O)Nc4ccccc4)c3)cncc21` [Example 2.1, 1-[3-(1-Methyl-1H-pyrazolo[3,4-c]pyridin-4-ylethynyl)-phenyl]-3-phenyl-urea], at least 10 µM.

Source of the values: patent US8481539B2, “Alkynylaryl compounds and salts thereof, pharmaceutical compositions comprising same, methods of preparing same and uses of same” (Bayer Intellectual Property GmbH, priority 2007, dated 2013).
